Reference: article PMC10703858, “A simple and green capillary electrophoresis-mass spectrometry method for therapeutic drug monitoring of colistin in clinical plasma samples” (Heliyon, 2023)
Like-named read-outs stand apart in the source and are kept apart here. Positions of bridges follow the written chain, without caps; N, C: chain ends. Non-standard residues stand in square brackets, D forms with d. Residues, ends and D or L forms follow the SMILES beside them. *: point of attachment. Octanoyl(6-Me) = CCC(C)CCCCC(=O)*; Dab = NCC[CH](N)C(=O)O

Columns and labels:
[1] = plasma CST concentration in critically ill patient (CE-MS/MS, TDM); format: in vivo, human; conditions: CST A + CST B = 100 %, reference standard was 37.2/62.8 %
Protocol: Clinical plasma samples from two critically ill patients were obtained from the Clinic of Hematology and Transfusiology of St Cyril and Methodius Hospital in Bratislava. After collection, the samples were stored at −80 °C. Before the analysis, the samples were thawed at laboratory temperature, vortexed, and then, 30 μL of the plasma sample was mixed with 30 μL of demineralized water and 120 μL of the IS working solution. […] Following this action, the supernatant was injected directly into the CE system from a CE vial.
The application potential of the validated CE-MS method was tested on the plasma samples obtained from the Clinic of Hematology and Transfusiology of St Cyril and Methodius Hospital in Bratislava. Samples were collected from two critically ill patients treated with multiple intravenous antibiotics and antifungals. The samples were collected before and 30 min after the intravenous (i.v.) administration of the drugs. Patient 1 was treated with meropenem, trimethoprim/sulphamethoxazol, and CST. […] The measured plasma CST concentration of patient 1 before drug administration was 0.82 ± 0.02 μg mL^−1 ([…], n = 3). […]
As previously stated, CST is a heterogeneous substance and, as such, differs not only between producers but also across batches produced by the same manufacturer. […] In clinical plasma samples, a reverse percentage representation of the CST forms was detected. […]

[2] = tested on: plasma proteins (especially acidic alpha glycoprotein); conditions: cited from earlier work
[3] = freeze and thaw stability in plasma QC samples; conditions: n = 5
Protocol: (§1) Quality control (QC) samples were prepared at three concentration levels: i.) low QC: 0.28 μg mL^−1 (CST A sulfate) and 0.47 μg mL^−1 (CST B sulfate); ii.) medium QC: 2.79 μg mL^−1 (CST A sulfate) and 4.71 μg mL^−1 (CST B sulfate); and iii.) high QC: 6.51 μg mL^−1 (CST A sulfate) and 10.99 μg mL^−1 (CST B sulfate). The calibration curve and the QC sample solutions were prepared by mixing 30 μL of the CST sulfate standard at the desired concentration level with 30 μL of demineralized water or plasma and 120 μL of the IS working solution. After being vortexed and left to rest at room temperature for 10 min, the samples were centrifuged at 30,000×g for 10 min. Following this action, supernatant was immediately injected from a CE vial. Every sample underwent three measurements.
(§2) During the validation process, two types of stability were assessed: freeze and thaw stability (three cycles of freezing and thawing at room temperature) and short-term stability (sample kept in an autosampler for 24 h at laboratory temperature). In order to compare the findings from the measurements of QC samples stored according to the guidelines with those of newly prepared QC samples, stability experiments were conducted.

[4] = short-term (autosampler) stability in plasma QC samples; conditions: n = 5
Protocol: as §1, §2

[5] = pediatric patients; sum of CST A and CST B; cited from earlier work
[6] = parameters: method as in PMID 30500757; conditions: used topically and orally; cited from earlier work

CCC(C)CCCCC(=O)NC(CCN)C(=O)NC(C(=O)NC(CCN)C(=O)NC1CCNC(=O)C(C(C)O)NC(=O)C(CCN)NC(=O)C(CCN)NC(=O)C(CC(C)C)NC(=O)C(CC(C)C)NC(=O)C(CCN)NC1=O)C(C)O (stereo not drawn) [CST A, colistin A] ({Octanoyl(6-Me)}-[Dab]T[Dab][Dab][Dab]LL[Dab][Dab]T; lactam 4-C; configuration not given here)
percentage representation of the CST forms in clinical plasma samples [1]: 76.4% | binding to plasma proteins ([2]; especially to acidic alpha glycoprotein): 56.6% | Freeze-to-thaw stability, Found, QC high ([3]; plasma QC high, nominal 6.51 (CST A) / 10.99 (CST B) μg.mL^−1, three freeze-thaw cycles, CE-MS/MS): 6.54 µg/mL | Freeze-to-thaw stability, Found, QC low ([3]; plasma QC low, nominal 0.28 (CST A) / 0.47 (CST B) μg.mL^−1, three cycles of freezing and thawing at room temperature, CE-MS/MS): 0.29 µg/mL | Freeze-to-thaw stability, Found, QC medium ([3]; plasma QC medium, nominal 2.79 (CST A) / 4.71 (CST B) μg.mL^−1, three freeze-thaw cycles, CE-MS/MS): 2.81 µg/mL | Freeze-to-thaw stability, RE, QC low ([3]; relative error in comparison to fresh sample, plasma QC low, three freeze-thaw cycles): 2.7% | Freeze-to-thaw stability, RE, QC medium ([3]; relative error in comparison to fresh sample, plasma QC medium, three freeze-thaw cycles): 1.7% | Autosampler stability, Found, QC high ([4]; plasma QC high, nominal 6.51 (CST A) / 10.99 (CST B) μg.mL^−1, autosampler 24 h at laboratory temperature, CE-MS/MS): 6.76 µg/mL | Autosampler stability, Found, QC low ([4]; plasma QC low, nominal 0.28 (CST A) / 0.47 (CST B) μg.mL^−1, kept in autosampler 24 h at laboratory temperature, pooled human plasma, CE-MS/MS): 0.29 µg/mL | Autosampler stability, Found, QC medium ([4]; plasma QC medium, nominal 2.79 (CST A) / 4.71 (CST B) μg.mL^−1, autosampler 24 h at laboratory temperature, CE-MS/MS): 2.94 µg/mL | Autosampler stability, RE, QC high ([4]; relative error in comparison to fresh sample, plasma QC high, autosampler 24 h at laboratory temperature): 2.3% | Autosampler stability, RE, QC medium ([4]; relative error in comparison to fresh sample, plasma QC medium, autosampler 24 h at laboratory temperature): 3.3%

CC(C)CCCCC(=O)N[C@@H](CCN)C(=O)N[C@H](C(=O)N[C@@H](CCN)C(=O)N[C@H]1CCNC(=O)[C@H]([C@@H](C)O)NC(=O)[C@H](CCN)NC(=O)[C@H](CCN)NC(=O)[C@H](CC(C)C)NC(=O)[C@@H](CC(C)C)NC(=O)[C@H](CCN)NC1=O)[C@@H](C)O [CST B, colistin B] (HELM PEPTIDE1{[CC(C)CCCCC(=O)[*:2]].[Dab].T.[Dab].[Dab].[Dab].[dL].L.[Dab].[Dab].T}$PEPTIDE1,PEPTIDE1,5:R3-11:R2$$$V2.0)
binding to plasma proteins [2]: 41.7%

Colistin [CST]
mean steady-state concentration of CST in plasma, median [5]: 2.92 µg/mL

colistin sulfate
absorption from the gastrointestinal tract [6]: minimal
